Measured values published in ChEMBL document CHEMBL1158948, “[Isolation and synthesis of espintanol, a new antiparasitic monoterpene]” (J Nat Prod, 1991).
Values after ≈ are worked out from the molar mass of the structure shown.

Experiments:
Leishmania chagasi [1] = test: Antileishmanial activity against Leishmania donovani chagasi after 48 hrs; format: functional
Leishmania braziliensis [2] = test: Antileishmanial activity against Leishmania (Viannia) braziliensis after 48 hrs; format: functional
Leishmania amazonensis [3] = test: Antileishmanial activity against Leishmania mexicana amazonensis after 48 hrs; format: functional
Trypanosoma cruzi [4] = test: Antitrypanosomal activity against Trypanosoma cruzi Tulahuen after 48 hrs; format: functional
Trypanosoma cruzi [5] = test: Antitrypanosomal activity against Trypanosoma cruzi C8CL1 after 48 hrs; format: functional
Trypanosoma cruzi [6] = test: Antitrypanosomal activity against Trypanosoma cruzi 27R27CL1 after 48 hrs; format: functional
Trypanosoma cruzi [7] = test: Antitrypanosomal activity against Trypanosoma cruzi Z1 after 48 hrs; format: functional
Trypanosoma cruzi [8] = test: Antitrypanosomal activity against Trypanosoma cruzi Z2 after 48 hrs; format: functional
Trypanosoma cruzi [9] = test: Antitrypanosomal activity against Trypanosoma cruzi Z2CL4 after 48 hrs; format: functional
Trypanosoma cruzi [10] = test: Antitrypanosomal activity against Trypanosoma cruzi 13379 CL3 after 48 hrs; format: functional
Trypanosoma cruzi [11] = test: Antitrypanosomal activity against Trypanosoma cruzi 13379 CL5 after 48 hrs; format: functional
Trypanosoma cruzi [12] = test: Antitrypanosomal activity against Trypanosoma cruzi 13379 CL6 after 48 hrs; format: functional
Trypanosoma cruzi [13] = test: Antitrypanosomal activity against Trypanosoma cruzi 13379 CL8 after 48 hrs; format: functional
Trypanosoma cruzi [14] = test: Antitrypanosomal activity against Trypanosoma cruzi C8 CL1 after 48 hrs; format: functional
Trypanosoma cruzi [15] = test: Antitrypanosomal activity against Trypanosoma cruzi A98CL5 after 48 hrs; format: functional
Trypanosoma cruzi [16] = test: Antitrypanosomal activity against Trypanosoma cruzi MIL4CL10 after 48 hrs; format: functional
Trypanosoma cruzi [17] = test: Antitrypanosomal activity against Trypanosoma cruzi M6241CL6 after 48 hrs; format: functional
Trypanosoma cruzi [18] = test: Antitrypanosomal activity against Trypanosoma cruzi 9280CL1 after 48 hrs; format: functional
Trypanosoma cruzi [19] = test: Antitrypanosomal activity against Trypanosoma cruzi CL after 48 hrs; format: functional
Trypanosoma cruzi [20] = test: Antitrypanosomal activity against Trypanosoma cruzi Y after 48 hrs; format: functional
Trypanosoma cruzi [21] = test: Antitrypanosomal activity against Trypanosoma cruzi A99CL7 after 48 hrs; format: functional
Trypanosoma cruzi [22] = test: Antitrypanosomal activity against Trypanosoma cruzi R107 after 48 hrs; format: functional
Trypanosoma cruzi [23] = test: Antitrypanosomal activity against Trypanosoma cruzi TeCL2 after 48 hrs; format: functional
Trypanosoma cruzi [24] = test: Antitrypanosomal activity against Trypanosoma cruzi 31R16CL1 after 48 hrs; format: functional
Leishmania braziliensis [25] = test: Antileishmanial activity against Leishmania (Viannia) braziliensis 2904 after 48 hrs; format: functional
Leishmania guyanensis = test: Antileishmanial activity against Leishmania (Viannia) guyanensis M4147 after 48 hrs; format: functional
Leishmania peruviana = test: Antileishmanial activity against Leishmania (Viannia) peruviana PERU after 48 hrs; format: functional
[26] = tested on: Leishmania mexicana mexicana; test: Antileishmanial activity against Leishmania mexicana mexicana BEL21 after 48 hrs; format: functional
Leishmania amazonensis [27] = test: Antileishmanial activity against Leishmania mexicana amazonensis PH8 after 48 hrs; format: functional
Leishmania pifanoi = test: Antileishmanial activity against Leishmania pifanoi LL1 after 48 hrs; format: functional
Leishmania aristidesi = test: Antileishmanial activity against Leishmania mexicana […] 6331 after 48 hrs; format: functional
Leishmania garnhami = test: Antileishmanial activity against Leishmania mexicana garnhami JAP78 after 48 hrs; format: functional
[28] = tested on: Leishmania mexicana venezuelensis; test: Antileishmanial activity against Leishmania mexicana venezuelensis PM H3 after 48 hrs; format: functional
[29] = tested on: Leishmania donovani donovani; test: Antileishmanial activity against Leishmania donovani donovani HS 70 after 48 hrs; format: functional
Leishmania chagasi [30] = test: Antileishmanial activity against Leishmania donovani chagasi LEM 379 after 48 hrs; format: functional
Leishmania infantum = test: Antileishmanial activity against Leishmania donovani infantum LEM 209 after 48 hrs; format: functional, LEM209
Mus musculus = test: Toxicity in BALB/c mouse at 800 mg/kg, ip after 72 hrs; format: organism-based; set-up: dose 800 mg/kg, route intraperitoneal; conditions: in vivo

COc1cc(C(C)C)ccc1C
IC90 (Leishmania chagasi [1]): 25 µg/mL (≈ 152 µM) | IC90 (Leishmania braziliensis [2]): 25 µg/mL (≈ 152 µM) | IC90 (Leishmania amazonensis [3]): 25 µg/mL (≈ 152 µM) | IC90 (Trypanosoma cruzi [4]): > 100 µg/mL | IC90 (Trypanosoma cruzi [5]): > 100 µg/mL | IC90 (Trypanosoma cruzi [6]): > 100 µg/mL

COc1cc(C)c(OC)c(OC)c1C(C)C
IC90 (Leishmania chagasi [1]): > 100 µg/mL | IC90 (Leishmania braziliensis [2]): > 100 µg/mL | IC90 (Leishmania amazonensis [3]): > 100 µg/mL | IC90 (Trypanosoma cruzi [4]): > 100 µg/mL | IC90 (Trypanosoma cruzi [5]): > 100 µg/mL | IC90 (Trypanosoma cruzi [6]): > 100 µg/mL

O=C(Cn1ccnc1[N+](=O)[O-])NCc1ccccc1 [BENZNIDAZOLE]
IC90 (Trypanosoma cruzi [4]): 50 µg/mL (≈ 192 µM) | IC90 (Trypanosoma cruzi [6]): 100 µg/mL (≈ 384 µM) | IC90 (Trypanosoma cruzi [7]): 100 µg/mL (≈ 384 µM) | IC90 (Trypanosoma cruzi [8]): 100 µg/mL (≈ 384 µM) | IC90 (Trypanosoma cruzi [9]): 100 µg/mL (≈ 384 µM) | IC90 (Trypanosoma cruzi [10]): > 100 µg/mL | IC90 (Trypanosoma cruzi [11]): 100 µg/mL (≈ 384 µM) | IC90 (Trypanosoma cruzi [12]): > 100 µg/mL | IC90 (Trypanosoma cruzi [13]): > 100 µg/mL | IC90 (Trypanosoma cruzi [14]): 100 µg/mL (≈ 384 µM) | IC90 (Trypanosoma cruzi [15]): 100 µg/mL (≈ 384 µM) | IC90 (Trypanosoma cruzi [16]): 25 µg/mL (≈ 96.1 µM) | IC90 (Trypanosoma cruzi [17]): > 100 µg/mL | IC90 (Trypanosoma cruzi [18]): 50 µg/mL (≈ 192 µM) | IC90 (Trypanosoma cruzi [19]): 100 µg/mL (≈ 384 µM) | IC90 (Trypanosoma cruzi [20]): 25 µg/mL (≈ 96.1 µM) | IC90 (Trypanosoma cruzi [21]): 100 µg/mL (≈ 384 µM) | IC90 (Trypanosoma cruzi [22]): 50 µg/mL (≈ 192 µM) | IC90 (Trypanosoma cruzi [23]): 25 µg/mL (≈ 96.1 µM) | IC90 (Trypanosoma cruzi [24]): 100 µg/mL (≈ 384 µM)

COc1cc(C)c(O)c(OC)c1C(C)C [ESPINTANOL]
IC90 (Leishmania braziliensis [25]): 10 µg/mL (≈ 47.6 µM) | IC90 (Leishmania guyanensis): 25 µg/mL (≈ 119 µM) | IC90 (Leishmania peruviana): 25 µg/mL (≈ 119 µM) | IC90 [26]: 25 µg/mL (≈ 119 µM) | IC90 (Leishmania amazonensis [27]): 25 µg/mL (≈ 119 µM) | IC90 (Leishmania pifanoi): 25 µg/mL (≈ 119 µM) | IC90 (Leishmania aristidesi): 25 µg/mL (≈ 119 µM) | IC90 (Leishmania garnhami): 25 µg/mL (≈ 119 µM) | IC90 [28]: 50 µg/mL (≈ 238 µM) | IC90 [29]: 50 µg/mL (≈ 238 µM) | IC90 (Leishmania chagasi [1]): 10 µg/mL (≈ 47.6 µM) | IC90 (Leishmania chagasi [30]): 25 µg/mL (≈ 119 µM) | IC90 (Leishmania infantum): 25 µg/mL (≈ 119 µM) | IC90 (Leishmania braziliensis [2]): 10 µg/mL (≈ 47.6 µM) | IC90 (Leishmania amazonensis [3]): 25 µg/mL (≈ 119 µM) | IC90 (Trypanosoma cruzi [4]): 25 µg/mL (≈ 119 µM) | IC90 (Trypanosoma cruzi [5]): 25 µg/mL (≈ 119 µM) | IC90 (Trypanosoma cruzi [6]): 25 µg/mL (≈ 119 µM) | Activity (Mus musculus): Active | IC90 (Trypanosoma cruzi [7]): 50 µg/mL (≈ 238 µM) | IC90 (Trypanosoma cruzi [8]): 50 µg/mL (≈ 238 µM) | IC90 (Trypanosoma cruzi [9]): 100 µg/mL (≈ 476 µM) | IC90 (Trypanosoma cruzi [10]): 50 µg/mL (≈ 238 µM) | IC90 (Trypanosoma cruzi [11]): 50 µg/mL (≈ 238 µM) | IC90 (Trypanosoma cruzi [12]): 100 µg/mL (≈ 476 µM) | IC90 (Trypanosoma cruzi [13]): 50 µg/mL (≈ 238 µM) | IC90 (Trypanosoma cruzi [14]): 25 µg/mL (≈ 119 µM) | IC90 (Trypanosoma cruzi [15]): > 100 µg/mL | IC90 (Trypanosoma cruzi [16]): 25 µg/mL (≈ 119 µM) | IC90 (Trypanosoma cruzi [17]): > 100 µg/mL | IC90 (Trypanosoma cruzi [18]): 50 µg/mL (≈ 238 µM) | IC90 (Trypanosoma cruzi [19]): > 100 µg/mL | IC90 (Trypanosoma cruzi [20]): 50 µg/mL (≈ 238 µM) | IC90 (Trypanosoma cruzi [21]): 25 µg/mL (≈ 119 µM) | IC90 (Trypanosoma cruzi [22]): 25 µg/mL (≈ 119 µM) | IC90 (Trypanosoma cruzi [23]): 25 µg/mL (≈ 119 µM) | IC90 (Trypanosoma cruzi [24]): 50 µg/mL (≈ 238 µM)

CC1CS(=O)(=O)CCN1/N=C/c1ccc([N+](=O)[O-])o1 (configuration not stated) [NIFURTIMOX]
IC90 (Trypanosoma cruzi [4]): 25 µg/mL (≈ 87 µM) | IC90 (Trypanosoma cruzi [6]): 100 µg/mL (≈ 348 µM) | IC90 (Trypanosoma cruzi [7]): 50 µg/mL (≈ 174 µM) | IC90 (Trypanosoma cruzi [8]): 25 µg/mL (≈ 87 µM) | IC90 (Trypanosoma cruzi [9]): 50 µg/mL (≈ 174 µM) | IC90 (Trypanosoma cruzi [10]): > 100 µg/mL | IC90 (Trypanosoma cruzi [11]): 100 µg/mL (≈ 348 µM) | IC90 (Trypanosoma cruzi [12]): > 100 µg/mL | IC90 (Trypanosoma cruzi [13]): 50 µg/mL (≈ 174 µM) | IC90 (Trypanosoma cruzi [14]): 25 µg/mL (≈ 87 µM) | IC90 (Trypanosoma cruzi [15]): 100 µg/mL (≈ 348 µM) | IC90 (Trypanosoma cruzi [16]): 50 µg/mL (≈ 174 µM) | IC90 (Trypanosoma cruzi [17]): 50 µg/mL (≈ 174 µM) | IC90 (Trypanosoma cruzi [18]): 50 µg/mL (≈ 174 µM) | IC90 (Trypanosoma cruzi [19]): 100 µg/mL (≈ 348 µM) | IC90 (Trypanosoma cruzi [20]): 25 µg/mL (≈ 87 µM) | IC90 (Trypanosoma cruzi [21]): 25 µg/mL (≈ 87 µM) | IC90 (Trypanosoma cruzi [22]): 25 µg/mL (≈ 87 µM) | IC90 (Trypanosoma cruzi [23]): 25 µg/mL (≈ 87 µM) | IC90 (Trypanosoma cruzi [24]): 100 µg/mL (≈ 348 µM)

N=C(N)c1ccc(OCCCCCOc2ccc(C(=N)N)cc2)cc1 [PENTAMIDINE]
IC90 (Leishmania braziliensis [25]): 1 µg/mL (≈ 2.94 µM) | IC90 (Leishmania guyanensis): 5 µg/mL (≈ 14.7 µM) | IC90 (Leishmania peruviana): 5 µg/mL (≈ 14.7 µM) | IC90 [26]: 1 µg/mL (≈ 2.94 µM) | IC90 (Leishmania amazonensis [27]): 1 µg/mL (≈ 2.94 µM) | IC90 (Leishmania pifanoi): 1 µg/mL (≈ 2.94 µM) | IC90 (Leishmania aristidesi): 1 µg/mL (≈ 2.94 µM) | IC90 (Leishmania garnhami): 1 µg/mL (≈ 2.94 µM) | IC90 [28]: 5 µg/mL (≈ 14.7 µM) | IC90 [29]: 1 µg/mL (≈ 2.94 µM) | IC90 (Leishmania chagasi [30]): 1 µg/mL (≈ 2.94 µM) | IC90 (Leishmania infantum): 1 µg/mL (≈ 2.94 µM)

COc1cc(C(C)C)c(OC)cc1C [THYMOQUINOL DIMETHYLETHER]
IC90 (Leishmania chagasi [1]): > 100 µg/mL | IC90 (Leishmania braziliensis [2]): > 100 µg/mL | IC90 (Leishmania amazonensis [3]): > 100 µg/mL | IC90 (Trypanosoma cruzi [4]): > 100 µg/mL | IC90 (Trypanosoma cruzi [5]): > 100 µg/mL | IC90 (Trypanosoma cruzi [6]): > 100 µg/mL

MEGLUMINE ANTIMONATE
IC90 [26]: > 100 µg/mL | IC90 (Leishmania aristidesi): > 100 µg/mL | IC90 [28]: > 100 µg/mL | IC90 [29]: > 100 µg/mL | IC90 (Leishmania chagasi [30]): > 100 µg/mL
